Data taken from ChEMBL document CHEMBL4321794, “Discovery and Optimization of 2-Arylquinazolin-4-ones into a Potent and Selective Tankyrase Inhibitor Modulating Wnt Pathway Activity” (J Med Chem, 2019).
Converted amounts (≈) assume the structure as drawn.

Legend:
[1] = Thermodynamic solubility in phosphate buffer at pH 7.4 at 2 mg incubated under shaking condition for 6 hrs followed by rechecking and readjusting pH to 7.4 and further incubated for 18 hrs by HPLC/UV detection method; assay type: physicochemical; conditions: read-out: Therm_solubility
[2] = target: T1, Poly [ADP-ribose] polymerase tankyrase-1 (Homo sapiens, UniProt O95271); design: species or system Sf9
T1 sequence (O95271 whole entry): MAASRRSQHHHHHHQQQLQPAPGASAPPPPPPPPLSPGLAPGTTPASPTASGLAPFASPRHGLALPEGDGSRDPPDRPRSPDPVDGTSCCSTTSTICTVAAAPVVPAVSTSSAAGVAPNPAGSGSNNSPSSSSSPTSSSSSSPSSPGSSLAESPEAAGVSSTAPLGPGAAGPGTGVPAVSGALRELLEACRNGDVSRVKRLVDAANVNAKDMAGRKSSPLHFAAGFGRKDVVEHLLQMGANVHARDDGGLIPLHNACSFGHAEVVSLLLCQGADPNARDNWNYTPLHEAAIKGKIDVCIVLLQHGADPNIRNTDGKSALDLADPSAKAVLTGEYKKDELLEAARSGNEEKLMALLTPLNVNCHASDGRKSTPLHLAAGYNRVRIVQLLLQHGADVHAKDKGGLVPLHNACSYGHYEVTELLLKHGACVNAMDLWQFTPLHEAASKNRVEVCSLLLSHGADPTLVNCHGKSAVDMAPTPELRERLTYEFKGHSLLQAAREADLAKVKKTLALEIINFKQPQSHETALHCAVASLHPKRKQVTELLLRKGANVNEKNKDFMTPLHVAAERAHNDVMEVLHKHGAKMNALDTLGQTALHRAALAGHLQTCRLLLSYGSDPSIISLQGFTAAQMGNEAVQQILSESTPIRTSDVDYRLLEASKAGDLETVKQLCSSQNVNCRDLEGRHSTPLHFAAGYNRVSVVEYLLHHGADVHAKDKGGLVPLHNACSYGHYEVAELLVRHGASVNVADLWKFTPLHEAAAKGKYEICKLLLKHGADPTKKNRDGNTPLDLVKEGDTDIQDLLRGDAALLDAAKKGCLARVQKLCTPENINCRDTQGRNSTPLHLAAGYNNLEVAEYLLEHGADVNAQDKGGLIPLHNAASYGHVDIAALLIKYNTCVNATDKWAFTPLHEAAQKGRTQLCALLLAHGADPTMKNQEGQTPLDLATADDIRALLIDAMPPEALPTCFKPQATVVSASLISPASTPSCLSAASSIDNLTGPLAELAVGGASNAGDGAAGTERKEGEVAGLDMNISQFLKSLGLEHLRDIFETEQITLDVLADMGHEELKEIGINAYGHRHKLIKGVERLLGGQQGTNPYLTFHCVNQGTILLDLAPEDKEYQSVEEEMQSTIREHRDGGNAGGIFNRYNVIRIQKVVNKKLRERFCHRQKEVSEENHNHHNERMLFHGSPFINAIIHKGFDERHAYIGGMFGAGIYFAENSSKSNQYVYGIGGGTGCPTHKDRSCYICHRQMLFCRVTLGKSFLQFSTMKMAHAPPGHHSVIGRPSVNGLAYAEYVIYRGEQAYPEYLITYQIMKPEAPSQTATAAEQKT

[3] = Intrinsic clearance in mouse liver microsomes assessed per mg protein in presence of NADPH by UPLC analysis; assay type: ADME, Microsome; conditions: read-out: CLH
[4] = target: Poly [ADP-ribose] polymerase 1 (Homo sapiens, UniProt P09874); experiment: Inhibition of recombinant human full-length Myc/His-tagged Parp-1 expressed in baculovirus infected Sf21 insect cells assessed as reduction in auto-PARsylation using activated DNA as substrate incubated for 150 mins in presence of NAD and bio-NAD as co-substrate by TR-FRET assay
Chain of Poly [ADP-ribose] polymerase 1 (P09874 whole entry): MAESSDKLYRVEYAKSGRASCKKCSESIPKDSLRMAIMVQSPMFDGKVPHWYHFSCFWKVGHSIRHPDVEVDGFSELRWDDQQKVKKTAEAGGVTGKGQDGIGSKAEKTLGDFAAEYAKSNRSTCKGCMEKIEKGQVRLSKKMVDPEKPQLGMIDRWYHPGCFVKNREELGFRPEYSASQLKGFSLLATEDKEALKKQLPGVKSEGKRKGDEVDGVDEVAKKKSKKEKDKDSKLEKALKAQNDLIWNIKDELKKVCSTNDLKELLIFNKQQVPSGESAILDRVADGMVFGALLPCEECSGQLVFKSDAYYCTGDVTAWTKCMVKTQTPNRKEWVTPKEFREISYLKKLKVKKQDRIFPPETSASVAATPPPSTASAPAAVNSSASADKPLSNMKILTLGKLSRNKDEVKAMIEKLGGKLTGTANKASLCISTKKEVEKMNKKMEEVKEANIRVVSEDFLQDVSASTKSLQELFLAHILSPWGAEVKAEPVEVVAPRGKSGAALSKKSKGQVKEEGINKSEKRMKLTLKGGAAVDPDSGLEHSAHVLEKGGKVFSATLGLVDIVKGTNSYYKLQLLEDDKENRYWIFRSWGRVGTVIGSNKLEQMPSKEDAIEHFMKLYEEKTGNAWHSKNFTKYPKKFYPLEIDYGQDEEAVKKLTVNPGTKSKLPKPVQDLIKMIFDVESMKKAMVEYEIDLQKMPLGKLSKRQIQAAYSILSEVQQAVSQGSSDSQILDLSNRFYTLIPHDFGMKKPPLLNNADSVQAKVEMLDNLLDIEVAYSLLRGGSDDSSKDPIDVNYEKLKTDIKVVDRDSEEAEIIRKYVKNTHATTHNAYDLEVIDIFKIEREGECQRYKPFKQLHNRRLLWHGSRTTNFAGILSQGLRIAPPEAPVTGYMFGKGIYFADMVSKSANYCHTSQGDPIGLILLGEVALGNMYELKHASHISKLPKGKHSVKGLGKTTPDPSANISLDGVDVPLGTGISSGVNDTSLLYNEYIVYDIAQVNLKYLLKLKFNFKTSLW

[5] = Intrinsic clearance in human liver microsomes assessed per mg protein in presence of NADPH by UPLC analysis; assay type: ADME, Microsome; conditions: read-out: CLH
[6] = target: T2, Poly [ADP-ribose] polymerase tankyrase-2 (Homo sapiens, UniProt Q9H2K2); experiment: biochemical
T2 sequence (Q9H2K2 whole entry): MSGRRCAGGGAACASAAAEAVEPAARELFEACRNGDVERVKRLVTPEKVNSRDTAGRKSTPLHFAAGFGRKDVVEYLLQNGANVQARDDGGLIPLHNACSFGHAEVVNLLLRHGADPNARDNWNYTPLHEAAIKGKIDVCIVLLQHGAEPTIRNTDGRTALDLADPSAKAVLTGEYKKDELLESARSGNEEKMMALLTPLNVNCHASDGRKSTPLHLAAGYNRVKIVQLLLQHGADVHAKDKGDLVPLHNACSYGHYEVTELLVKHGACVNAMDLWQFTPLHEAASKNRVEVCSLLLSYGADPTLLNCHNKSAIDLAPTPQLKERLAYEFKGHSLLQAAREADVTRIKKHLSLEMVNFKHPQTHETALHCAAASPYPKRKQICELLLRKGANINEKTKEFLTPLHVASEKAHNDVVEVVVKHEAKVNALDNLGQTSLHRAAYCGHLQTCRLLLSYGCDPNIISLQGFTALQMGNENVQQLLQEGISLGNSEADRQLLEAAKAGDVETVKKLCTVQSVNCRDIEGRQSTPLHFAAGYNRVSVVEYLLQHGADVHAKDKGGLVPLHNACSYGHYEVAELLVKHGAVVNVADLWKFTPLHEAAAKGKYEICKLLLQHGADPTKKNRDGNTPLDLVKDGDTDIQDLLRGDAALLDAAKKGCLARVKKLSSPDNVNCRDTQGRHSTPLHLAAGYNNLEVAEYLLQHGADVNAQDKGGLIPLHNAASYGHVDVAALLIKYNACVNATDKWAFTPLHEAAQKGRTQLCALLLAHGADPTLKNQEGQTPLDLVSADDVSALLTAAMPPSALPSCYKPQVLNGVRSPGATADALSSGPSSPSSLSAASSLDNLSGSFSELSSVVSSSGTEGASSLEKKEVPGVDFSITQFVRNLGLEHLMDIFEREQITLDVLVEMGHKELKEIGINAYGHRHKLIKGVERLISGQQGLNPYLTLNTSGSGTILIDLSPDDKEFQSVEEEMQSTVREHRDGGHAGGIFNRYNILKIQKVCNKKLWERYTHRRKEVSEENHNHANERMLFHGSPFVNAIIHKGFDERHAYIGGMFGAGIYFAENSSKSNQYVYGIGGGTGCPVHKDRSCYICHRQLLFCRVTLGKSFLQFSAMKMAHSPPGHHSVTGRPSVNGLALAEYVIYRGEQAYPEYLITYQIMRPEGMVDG
Description: Inhibition of GST tagged-TEV cleavage site-fused human recombinant TNKS2 (873 to 1166 residues) expressed in baculovirus infected sf9 cells assessed as reduction in auto-PARsylation incubated for 60 mins in presence of bio-NAD as co-substrate by ELISA

Tankyrase 1/2 = target: T3, Tankyrase 1/2 (Homo sapiens, UniProt Q9H2K2+O95271)
T3 sequence (Q9H2K2 whole entry): T2 sequence (Q9H2K2 whole entry)
T3 sequence (O95271 whole entry): T1 sequence (O95271 whole entry)
Description: Inhibition of tankyrase 1/2 in human DLD1 cells assessed as increase in axin2 accumulation incubated for 24 hrs by luminex based bead assay

| Structure (SMILES) | solubility thermodynamic at 24 h [1] | IC50 [2] | microsomal CLint [3] | IC50 [4] | microsomal CLint [5] | IC50 [6] | EC50 (Tankyrase 1/2) |
| --- | --- | --- | --- | --- | --- | --- | --- |
| Cc1cccc2c(=O)[nH]c(-c3ccc(C(C)(C)O)cc3)nc12 | 4 µg/mL (≈ 13.6 µM) | 1.2 nM | 81 µL/min/mg | 79 nM | < 10 µL/min/mg |  |  |
| Cc1cc(F)cc2c(=O)[nH]c(-c3ccc(C4CCN(C)CC4)cc3)nc12 | 5 µg/mL (≈ 14.2 µM) | 2.2 nM | 422 µL/min/mg | 620 nM | < 10 µL/min/mg | 2.2 nM | 50 nM |
| CC(C)(O)c1ccc(-c2nc3ccc(Cl)cc3c(=O)[nH]2)cc1 |  | 23 nM |  | 1400 nM |  |  |  |
| Cc1cc(F)cc2c(=O)[nH]c(-c3ccc(N4CCN(C)CC4)cc3)nc12 | 4 µg/mL (≈ 11.4 µM) | 1.5 nM | 138 µL/min/mg | 120 nM | 14 µL/min/mg |  |  |
| CC(C)(O)c1ccc(-c2nc3ccc(F)c(F)c3c(=O)[nH]2)cc1 | 25 µg/mL (≈ 79 µM) | 7 nM | 23 µL/min/mg | 512 nM | < 10 µL/min/mg |  |  |
| CC(C)(O)c1ccc(-c2nc3c(F)ccc(F)c3c(=O)[nH]2)cc1 | 5 µg/mL (≈ 15.8 µM) | 26 nM | < 10 µL/min/mg | 1300 nM | < 10 µL/min/mg |  |  |
| Cl.O=c1[nH]c(-c2ccc(C3CCNCC3)cc2)nc2c(F)cc(F)cc12 | 57 µg/mL | 15 nM | < 10 µL/min/mg |  | < 10 µL/min/mg |  |  |
| CC(C)(O)c1ccc(-c2nc3ccccc3c(=O)[nH]2)cc1 | 38 µg/mL (≈ 136 µM) | 15 nM | 46 µL/min/mg | 910 nM | 15 µL/min/mg | 13 nM | 1300 nM |
| CC(C)(O)c1ccc(-c2nc3c(F)cccc3c(=O)[nH]2)cc1 | 15 µg/mL (≈ 50.3 µM) | 14 nM | 26 µL/min/mg | 1100 nM | < 10 µL/min/mg |  |  |
| Cc1cc(F)cc2c(=O)[nH]c(-c3ccc(C(C)(C)OCCO)cc3)nc12 |  | 1.6 nM | 180 µL/min/mg | 790 nM | 37 µL/min/mg |  |  |
| Cc1cc(F)cc2c(=O)[nH]c(-c3ccc(C(C)(C)O)cc3)nc12 | 1 µg/mL (≈ 3.2 µM) | 0.8 nM | 180 µL/min/mg | 60 nM | < 10 µL/min/mg |  |  |
| CN1CCN(c2ccc(-c3nc4ccc(F)cc4c(=O)[nH]3)cc2)CC1 | 6 µg/mL (≈ 17.7 µM) | 12 nM | 44 µL/min/mg | 370 nM | < 10 µL/min/mg |  |  |
| CC(C)(O)c1ccc(-c2nc3cccc(F)c3c(=O)[nH]2)cc1 | 20 µg/mL (≈ 67 µM) | 17 nM | 11 µL/min/mg | 830 nM | < 10 µL/min/mg |  |  |
| COc1cccc2c(=O)[nH]c(-c3ccc(C(C)(C)O)cc3)nc12 | 153 µg/mL (≈ 493 µM) | 35 nM | 45 µL/min/mg | 630 nM | 12 µL/min/mg |  |  |
| COc1ccc(-c2nc3ccccc3c(=O)[nH]2)cc1 | 4 µg/mL (≈ 15.9 µM) |  | 630 µL/min/mg |  | 217 µL/min/mg |  |  |
| CC(C)(C)c1ccc(-c2nc3ccc(F)cc3c(=O)[nH]2)cc1 | < 1 µg/mL | 3.3 nM | > 1000 µL/min/mg | 3900 nM | 70 µL/min/mg |  |  |
| COCCOC(C)(C)c1ccc(-c2nc3ccc(F)cc3c(=O)[nH]2)cc1 | 6 µg/mL (≈ 16.8 µM) | 24 nM | 126 µL/min/mg | 5700 nM | 41 µL/min/mg |  |  |
| CC(C)(O)c1ccc(-c2nc3ccc(F)cc3c(=O)[nH]2)cc1 | 29 µg/mL (≈ 97.2 µM) | 12.5 nM | 25 µL/min/mg | 349 nM | < 10 µL/min/mg |  |  |
| CC(C)(O)c1ccc(-c2nc3cccc(Cl)c3c(=O)[nH]2)cc1 |  | 35 nM |  | 4300 nM |  |  |  |
| CC(C)(O)c1ccc(-c2nc3c(Cl)cccc3c(=O)[nH]2)cc1 |  | 11 nM | 49 µL/min/mg | 410 nM | 23 µL/min/mg |  |  |
| CC(C)(O)c1ccc(-c2nc3ccc(F)cc3c(=O)[nH]2)nc1 |  | 1000 nM | < 10 µL/min/mg | 2500 nM | 15 µL/min/mg |  |  |
| CC(C)(OCCO)c1ccc(-c2nc3ccc(F)cc3c(=O)[nH]2)cc1 | 23 µg/mL (≈ 67.2 µM) | 10 nM | 32 µL/min/mg | 2300 nM | < 10 µL/min/mg |  |  |
